Assay results: ChEMBL document CHEMBL1201862, “PubChem BioAssay data set” (2004)
Calls of active or inactive are those of the source.

How the values were obtained:
[1] = Luminescence Cell-Based Dose Retest to Confirm Inhibitors of Cancer Stem Cells. [Related pubchem assays (depositor defined):AID2717, AID2721]; assay type: functional; conditions: Homo sapiens
[2] = target: Photoreceptor-specific nuclear receptor (Homo sapiens, UniProt Q9Y5X4); assay type: functional, cell-based;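 also: CHO-S cells with Gal4-NCOR and VP16-NR2E3 two-hybrid luciferase reporter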
Photoreceptor-specific nuclear receptor, sequence (Q9Y5X4 whole entry, the tested form may be a part): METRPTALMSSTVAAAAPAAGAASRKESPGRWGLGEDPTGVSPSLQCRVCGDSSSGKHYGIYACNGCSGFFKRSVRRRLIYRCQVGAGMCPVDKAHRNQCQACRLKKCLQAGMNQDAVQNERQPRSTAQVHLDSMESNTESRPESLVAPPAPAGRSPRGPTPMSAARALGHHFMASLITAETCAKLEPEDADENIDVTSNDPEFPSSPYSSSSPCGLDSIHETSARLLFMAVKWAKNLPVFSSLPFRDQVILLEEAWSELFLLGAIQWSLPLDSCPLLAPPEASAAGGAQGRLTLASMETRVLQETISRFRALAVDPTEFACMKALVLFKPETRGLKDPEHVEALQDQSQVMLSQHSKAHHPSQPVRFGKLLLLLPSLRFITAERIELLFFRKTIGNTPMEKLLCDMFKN

[3] = target: T1, Small ubiquitin-related modifier 1 (Homo sapiens, UniProt P63165); assay: SUMO1 protein interaction blockers, potency – biochemical, fluorescence polarization, uHTS hits, dose response (AID 624382); assay type: functional; conditions: read-out: IC50_Mean
T1 sequence (P63165 whole entry): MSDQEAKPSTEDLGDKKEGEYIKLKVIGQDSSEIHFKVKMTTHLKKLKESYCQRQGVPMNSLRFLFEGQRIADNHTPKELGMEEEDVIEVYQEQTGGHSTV

[4] = target: T1, Small ubiquitin-related modifier 1; assay: SUMO1 protein-protein binding blockers, potency – biochemical, FRET, dose response (AID 624383); assay type: functional; conditions: read-out: IC50_Mean
[5] = cytotoxicity toward MDA-MB-231 breast cancer cells – cell-based, CellTiter-Glo luminescence, cherry-pick, cytotoxicity control for RAD54 inhibitor project, dose response (AID 651692); assay type: functional
[6] = target: T2, DNA repair and recombination protein RAD54-like (Homo sapiens, UniProt Q92698); assay: RAD54 Holliday junction migration blockers – biochemical, fluorescence, cherry-picked samples, dose series, confirmation (AID 651657); assay type: functional
T2 sequence (Q92698 whole entry): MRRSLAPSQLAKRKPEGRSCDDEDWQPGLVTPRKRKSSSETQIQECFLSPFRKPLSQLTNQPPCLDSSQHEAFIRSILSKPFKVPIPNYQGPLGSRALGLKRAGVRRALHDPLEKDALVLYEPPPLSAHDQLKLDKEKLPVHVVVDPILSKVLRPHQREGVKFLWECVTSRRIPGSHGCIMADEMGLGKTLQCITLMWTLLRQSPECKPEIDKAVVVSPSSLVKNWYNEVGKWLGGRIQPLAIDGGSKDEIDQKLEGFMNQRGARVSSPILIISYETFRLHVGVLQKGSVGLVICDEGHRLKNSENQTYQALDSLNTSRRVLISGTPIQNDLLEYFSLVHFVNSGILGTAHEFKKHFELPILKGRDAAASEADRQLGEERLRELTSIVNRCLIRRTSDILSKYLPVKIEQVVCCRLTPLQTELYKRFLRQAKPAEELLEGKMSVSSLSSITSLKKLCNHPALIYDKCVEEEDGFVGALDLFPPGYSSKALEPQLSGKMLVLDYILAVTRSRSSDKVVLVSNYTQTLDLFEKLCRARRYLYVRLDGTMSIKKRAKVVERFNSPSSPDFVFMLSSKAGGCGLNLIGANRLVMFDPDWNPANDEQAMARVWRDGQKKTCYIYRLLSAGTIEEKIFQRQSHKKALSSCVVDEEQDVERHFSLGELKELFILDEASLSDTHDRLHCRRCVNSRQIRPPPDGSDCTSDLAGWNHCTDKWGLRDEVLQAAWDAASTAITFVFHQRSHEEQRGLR

[7] = target: T3, DNA repair protein RAD52 homolog (Homo sapiens, UniProt P43351); assay type: functional, biochemical
T3 sequence (P43351 whole entry): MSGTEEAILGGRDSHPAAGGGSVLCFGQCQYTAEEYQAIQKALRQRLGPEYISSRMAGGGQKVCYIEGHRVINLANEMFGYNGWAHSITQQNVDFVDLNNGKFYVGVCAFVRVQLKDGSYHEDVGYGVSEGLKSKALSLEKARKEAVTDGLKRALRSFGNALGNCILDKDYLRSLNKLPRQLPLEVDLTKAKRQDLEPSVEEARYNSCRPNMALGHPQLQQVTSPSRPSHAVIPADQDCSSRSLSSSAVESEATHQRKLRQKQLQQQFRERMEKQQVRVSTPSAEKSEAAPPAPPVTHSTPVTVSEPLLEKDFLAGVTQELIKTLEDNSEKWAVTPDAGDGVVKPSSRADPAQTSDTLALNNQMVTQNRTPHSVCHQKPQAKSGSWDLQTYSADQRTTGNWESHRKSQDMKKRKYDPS

[8] = viability of PTEN-deleted HCT116 cells – cell-based, HCT116 PTEN knockout, dose response (AID 1047); assay type: functional;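 also: HCT116 colon tumor cells with PTEN knocked out; cells exposed to compound for 60 hours before readout; potency for loss of cell viability measured by luminescence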
[9] = viability of HCT116 lacking mutant beta-catenin – cell-based, human colon tumor, dose response (AID 1045); assay type: functional;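 also: HCT116 colon tumor cells with beta catenin knocked out; cells exposed to compound for 60 hours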
[10] = target: Intestinal-type alkaline phosphatase (Mus musculus, UniProt P24822); assay: PubChem AID 488785; assay type: functional
Intestinal-type alkaline phosphatase (Mus musculus, UniProt P24822), sequence (P24822 whole entry): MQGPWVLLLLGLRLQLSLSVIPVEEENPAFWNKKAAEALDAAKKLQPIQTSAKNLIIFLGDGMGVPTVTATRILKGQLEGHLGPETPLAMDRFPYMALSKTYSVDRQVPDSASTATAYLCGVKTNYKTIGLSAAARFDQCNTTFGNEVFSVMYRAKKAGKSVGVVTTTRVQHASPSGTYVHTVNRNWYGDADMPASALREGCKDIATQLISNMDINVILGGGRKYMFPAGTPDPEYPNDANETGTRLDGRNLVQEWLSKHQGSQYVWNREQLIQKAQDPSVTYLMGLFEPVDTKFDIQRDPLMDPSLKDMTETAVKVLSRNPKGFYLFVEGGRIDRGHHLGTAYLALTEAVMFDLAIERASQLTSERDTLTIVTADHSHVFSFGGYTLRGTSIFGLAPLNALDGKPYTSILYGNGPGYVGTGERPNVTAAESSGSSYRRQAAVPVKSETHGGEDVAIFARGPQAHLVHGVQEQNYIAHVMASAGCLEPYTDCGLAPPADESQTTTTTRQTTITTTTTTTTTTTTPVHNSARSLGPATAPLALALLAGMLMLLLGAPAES

[11] = target: T4, Alkaline phosphatase, tissue-nonspecific isozyme (Homo sapiens, UniProt P05186); assay: TNAP enzyme inhibition by screening hits, dose response, selectivity assay for mouse IAP inhibitor project, biochemical, human TNAP, uHTS hits (AID 488906); assay type: functional
T4 sequence (P05186 whole entry): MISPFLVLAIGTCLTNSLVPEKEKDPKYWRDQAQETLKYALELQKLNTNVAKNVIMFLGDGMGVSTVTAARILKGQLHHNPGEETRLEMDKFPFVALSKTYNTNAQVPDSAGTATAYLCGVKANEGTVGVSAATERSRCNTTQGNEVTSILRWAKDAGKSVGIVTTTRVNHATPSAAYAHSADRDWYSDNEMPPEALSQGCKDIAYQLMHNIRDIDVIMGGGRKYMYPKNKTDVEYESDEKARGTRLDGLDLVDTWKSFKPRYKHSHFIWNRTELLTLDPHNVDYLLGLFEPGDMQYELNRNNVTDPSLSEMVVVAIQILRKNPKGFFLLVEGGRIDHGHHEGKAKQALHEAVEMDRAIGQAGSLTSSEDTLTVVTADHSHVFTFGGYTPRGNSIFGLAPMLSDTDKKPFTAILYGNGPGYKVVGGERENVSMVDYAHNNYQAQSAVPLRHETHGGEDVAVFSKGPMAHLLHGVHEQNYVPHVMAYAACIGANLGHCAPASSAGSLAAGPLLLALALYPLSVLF

[12] = target: Intestinal-type alkaline phosphatase (Homo sapiens, UniProt P09923); assay: inhibition of human intestinal alkaline phosphatase – biochemical, dose response (AID 488876); assay type: functional
Intestinal-type alkaline phosphatase (Homo sapiens, UniProt P09923), sequence (P09923 whole entry): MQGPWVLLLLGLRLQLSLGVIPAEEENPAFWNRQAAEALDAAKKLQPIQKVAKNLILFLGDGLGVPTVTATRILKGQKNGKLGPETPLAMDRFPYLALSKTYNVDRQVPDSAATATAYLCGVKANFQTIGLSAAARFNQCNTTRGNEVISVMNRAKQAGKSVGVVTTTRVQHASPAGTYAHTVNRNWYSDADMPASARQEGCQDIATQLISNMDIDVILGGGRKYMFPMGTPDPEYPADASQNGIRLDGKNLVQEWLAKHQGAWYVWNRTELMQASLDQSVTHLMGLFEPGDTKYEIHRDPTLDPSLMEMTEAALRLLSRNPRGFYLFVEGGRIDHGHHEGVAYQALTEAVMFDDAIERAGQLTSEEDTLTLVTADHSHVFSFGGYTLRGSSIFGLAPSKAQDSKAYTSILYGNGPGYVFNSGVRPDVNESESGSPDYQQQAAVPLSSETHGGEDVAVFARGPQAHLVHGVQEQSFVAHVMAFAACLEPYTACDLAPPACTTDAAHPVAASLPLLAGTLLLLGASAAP

INS1 = assay: INS-1E survival protection against cytokine death – cell-based, luminescence, retest, dose response (AID 449756); assay type: functional; conditions: Rattus norvegicus;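 also: cell death triggered by IL-1 beta plus TNF-alpha plus IFN-gamma mixture; protective hits raise ATP signal compared with cytokine alone wells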
[13] = target: Hepatocyte nuclear factor 4-alpha (Homo sapiens, UniProt P41235); assay type: functional, cell-based;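 also: biochemical luminescence-based dose-response counterscreen measuring inhibition of HNF4 dimerization, run alongside a screen for blockers of ABHD5–perilipin-5 interaction; split luciferase complementation of HNF4 fusion proteins in cell lysate measuring dimerization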
Hepatocyte nuclear factor 4-alpha, sequence (P41235 whole entry, the tested form may be a part): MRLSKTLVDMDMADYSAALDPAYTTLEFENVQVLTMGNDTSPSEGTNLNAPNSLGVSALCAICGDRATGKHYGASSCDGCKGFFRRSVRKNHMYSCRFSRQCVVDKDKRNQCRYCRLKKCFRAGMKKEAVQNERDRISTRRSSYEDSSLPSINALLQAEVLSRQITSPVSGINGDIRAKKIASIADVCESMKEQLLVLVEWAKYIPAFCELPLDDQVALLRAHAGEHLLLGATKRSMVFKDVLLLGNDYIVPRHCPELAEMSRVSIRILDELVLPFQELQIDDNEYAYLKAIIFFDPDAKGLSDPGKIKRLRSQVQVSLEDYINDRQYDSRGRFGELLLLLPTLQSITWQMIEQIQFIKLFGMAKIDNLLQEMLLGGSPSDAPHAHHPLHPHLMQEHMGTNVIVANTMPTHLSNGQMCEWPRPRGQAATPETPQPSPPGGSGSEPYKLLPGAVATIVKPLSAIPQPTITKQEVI

Cytochrome P450 1A2 = target: T5, Cytochrome P450 1A2 (Homo sapiens, UniProt P05177);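 also: PubChem cytochrome P450 panel assay, CYP1A2 panel member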
T5 sequence (P05177 whole entry): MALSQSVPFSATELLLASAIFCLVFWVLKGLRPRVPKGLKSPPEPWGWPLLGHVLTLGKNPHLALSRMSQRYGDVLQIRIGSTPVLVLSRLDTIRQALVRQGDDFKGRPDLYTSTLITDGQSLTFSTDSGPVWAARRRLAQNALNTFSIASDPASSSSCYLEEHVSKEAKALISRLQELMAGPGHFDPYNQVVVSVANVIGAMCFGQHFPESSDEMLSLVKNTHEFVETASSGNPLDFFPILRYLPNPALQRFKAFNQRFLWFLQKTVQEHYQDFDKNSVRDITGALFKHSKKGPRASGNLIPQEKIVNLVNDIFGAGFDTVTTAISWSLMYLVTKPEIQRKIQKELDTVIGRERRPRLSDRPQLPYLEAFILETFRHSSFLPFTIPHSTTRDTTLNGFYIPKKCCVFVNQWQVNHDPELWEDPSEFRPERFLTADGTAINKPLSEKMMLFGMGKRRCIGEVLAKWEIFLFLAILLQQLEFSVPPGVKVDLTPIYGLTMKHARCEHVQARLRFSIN

Cytochrome P450 2C9 = Cytochrome P450 2C9 (Homo sapiens, UniProt P11712)
Cytochrome P450 2C9, sequence (P11712 whole entry): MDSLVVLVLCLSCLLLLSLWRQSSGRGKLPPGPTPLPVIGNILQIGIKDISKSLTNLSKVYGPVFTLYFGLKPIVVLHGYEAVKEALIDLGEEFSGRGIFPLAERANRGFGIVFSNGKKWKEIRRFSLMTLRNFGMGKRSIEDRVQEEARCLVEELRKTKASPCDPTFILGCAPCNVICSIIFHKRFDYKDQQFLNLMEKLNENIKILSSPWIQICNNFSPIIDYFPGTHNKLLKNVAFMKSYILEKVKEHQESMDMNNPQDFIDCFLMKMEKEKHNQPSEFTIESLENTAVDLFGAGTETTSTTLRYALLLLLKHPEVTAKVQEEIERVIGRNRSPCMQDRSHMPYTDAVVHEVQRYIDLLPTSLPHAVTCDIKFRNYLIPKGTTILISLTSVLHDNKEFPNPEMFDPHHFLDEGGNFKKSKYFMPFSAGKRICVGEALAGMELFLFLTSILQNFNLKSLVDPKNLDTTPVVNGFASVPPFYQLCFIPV

[14] = target: Tyrosine-protein phosphatase non-receptor type 11 (Homo sapiens, UniProt Q06124); assay: PTPN11 enzyme inhibitors – biochemical, selectivity assay for STEP inhibitor project, dose response (AID 602367); assay type: functional; conditions: read-out: IC50_Mean
Tyrosine-protein phosphatase non-receptor type 11, sequence (Q06124 whole entry): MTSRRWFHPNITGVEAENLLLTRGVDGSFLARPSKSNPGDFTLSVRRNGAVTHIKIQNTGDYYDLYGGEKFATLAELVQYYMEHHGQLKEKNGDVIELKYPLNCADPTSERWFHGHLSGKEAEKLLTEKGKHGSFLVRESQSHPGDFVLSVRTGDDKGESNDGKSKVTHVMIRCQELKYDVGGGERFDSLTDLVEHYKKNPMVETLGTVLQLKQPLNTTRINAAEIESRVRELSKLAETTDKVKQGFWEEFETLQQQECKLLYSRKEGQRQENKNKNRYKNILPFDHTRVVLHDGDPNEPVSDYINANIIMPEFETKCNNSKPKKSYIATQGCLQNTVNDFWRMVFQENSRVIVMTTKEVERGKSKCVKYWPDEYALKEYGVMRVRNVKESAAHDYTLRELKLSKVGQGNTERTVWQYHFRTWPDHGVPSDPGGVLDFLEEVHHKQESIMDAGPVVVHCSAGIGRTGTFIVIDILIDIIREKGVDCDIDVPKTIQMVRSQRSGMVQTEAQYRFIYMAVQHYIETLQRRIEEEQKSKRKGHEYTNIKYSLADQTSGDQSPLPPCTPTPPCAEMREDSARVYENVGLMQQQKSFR

[15] = target: Tyrosine-protein phosphatase non-receptor type 5 (Homo sapiens, UniProt P54829); assay: PTPN5 enzyme inhibition – biochemical, fluorescence intensity, uHTS hits, confirmation (AID 602372); assay type: functional; conditions: read-out: IC50_Mean
Tyrosine-protein phosphatase non-receptor type 5, sequence (P54829 whole entry): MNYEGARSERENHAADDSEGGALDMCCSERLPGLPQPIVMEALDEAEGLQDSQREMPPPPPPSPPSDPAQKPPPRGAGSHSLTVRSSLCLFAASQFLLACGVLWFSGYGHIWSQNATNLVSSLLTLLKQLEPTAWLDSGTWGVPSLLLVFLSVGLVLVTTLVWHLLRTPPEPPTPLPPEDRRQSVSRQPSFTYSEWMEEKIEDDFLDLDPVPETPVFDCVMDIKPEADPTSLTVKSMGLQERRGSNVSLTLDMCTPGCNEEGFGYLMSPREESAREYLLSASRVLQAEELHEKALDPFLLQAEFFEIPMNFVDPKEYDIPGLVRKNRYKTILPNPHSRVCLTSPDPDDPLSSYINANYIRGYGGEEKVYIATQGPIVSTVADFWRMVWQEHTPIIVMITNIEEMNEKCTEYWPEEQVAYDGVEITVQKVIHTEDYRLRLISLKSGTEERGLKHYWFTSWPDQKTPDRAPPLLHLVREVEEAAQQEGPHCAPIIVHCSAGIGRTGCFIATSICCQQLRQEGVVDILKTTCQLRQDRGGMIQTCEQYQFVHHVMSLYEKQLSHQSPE

[16] = target: Dual specificity protein phosphatase 3 (Homo sapiens, UniProt P51452); assay: VHR phosphatase inhibition, dose response, selectivity assay for STEP inhibitor project, biochemical (AID 602374); assay type: functional; conditions: read-out: IC50_Mean
Dual specificity protein phosphatase 3, sequence (P51452 whole entry): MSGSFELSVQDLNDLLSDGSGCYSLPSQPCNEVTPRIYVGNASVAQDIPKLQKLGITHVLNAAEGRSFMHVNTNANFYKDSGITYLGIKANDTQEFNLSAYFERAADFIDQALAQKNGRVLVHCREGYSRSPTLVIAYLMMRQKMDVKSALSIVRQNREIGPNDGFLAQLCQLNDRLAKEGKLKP

[17] = target: T6, Tyrosine-protein phosphatase non-receptor type 22 (Homo sapiens, UniProt Q9Y2R2); assay: lymphoid phosphatase LYP inhibitors – biochemical, selectivity assay for STEP inhibitor project, dose response (AID 624241); assay type: functional
T6 sequence (Q9Y2R2 whole entry): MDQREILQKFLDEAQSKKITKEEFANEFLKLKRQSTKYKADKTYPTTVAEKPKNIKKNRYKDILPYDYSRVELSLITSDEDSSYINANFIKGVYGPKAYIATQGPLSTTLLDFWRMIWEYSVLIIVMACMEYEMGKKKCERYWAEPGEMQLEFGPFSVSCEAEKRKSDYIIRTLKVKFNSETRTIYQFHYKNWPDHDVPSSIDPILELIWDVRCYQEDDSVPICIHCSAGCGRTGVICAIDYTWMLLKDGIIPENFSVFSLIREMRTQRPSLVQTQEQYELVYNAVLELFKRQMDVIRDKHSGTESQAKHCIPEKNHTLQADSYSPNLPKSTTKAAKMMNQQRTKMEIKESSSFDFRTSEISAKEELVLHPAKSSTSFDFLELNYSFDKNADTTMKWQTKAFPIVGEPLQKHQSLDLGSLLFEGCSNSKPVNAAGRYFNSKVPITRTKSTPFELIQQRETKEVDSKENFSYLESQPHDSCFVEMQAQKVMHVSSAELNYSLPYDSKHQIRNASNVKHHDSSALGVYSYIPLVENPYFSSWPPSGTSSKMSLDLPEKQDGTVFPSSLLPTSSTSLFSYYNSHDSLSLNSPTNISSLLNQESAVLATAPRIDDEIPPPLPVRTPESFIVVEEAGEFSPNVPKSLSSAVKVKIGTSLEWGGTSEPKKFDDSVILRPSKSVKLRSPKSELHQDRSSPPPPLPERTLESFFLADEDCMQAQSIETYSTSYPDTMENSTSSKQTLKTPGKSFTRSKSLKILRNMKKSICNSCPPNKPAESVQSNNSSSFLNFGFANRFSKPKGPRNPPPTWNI

With `CCc1ccccc1Nc1nn2c(=O)c3ccc(C(=O)NCc4ccccn4)cc3nc2s1` the AC50 [1] was 0.343 µM (active), the IC50 [2] was 13.1 µM (inactive) and the IC50 [3] was > 66.6 µM (inactive). For the same compound, the IC50 [4] was 10.4 µM (active).
In the case of `COc1ccc(-c2oc3ncnc(NCCCN(C)C)c3c2-c2ccc(OC)cc2)cc1`, the AC50 [5] is reported as 12.9 µM (active), the AC50 [6] is reported as 21.7 µM (active) and the AC50 [7] is reported as 3.48 µM (active).
For `CCOc1cc(/C=C2\CCC/C(=C\c3cc(Cl)c(O)c(OCC)c3)C2=O)cc(Cl)c1O`, the EC50 [8] was 2.24 µM (active), the EC50 [9] was 2.23 µM (active) and the IC50 [10] was 7.08 µM (active). For the same compound, the IC50 [11] was > 100 µM (inactive), the IC50 [12] was > 100 µM (inactive) and the AC50 (INS1) was 8.02 µM (active). The IC50 [13] was 6.46 µM (active), the AC50 (Cytochrome P450 1A2) was 10 µM (inconclusive) and the AC50 (Cytochrome P450 2C9) was “inconclusive”.
With `CC1=C(C(=O)OC(C)C)C(c2ccc(Cl)cc2)n2c(s/c(=C\c3ccc(OCC(=O)O)cc3)c2=O)=N1` (configuration not stated) the IC50 [14] was 3.24 µM (active), the IC50 [15] was 4.68 µM (active) and the IC50 [16] was 3.02 µM (active). The IC50 [3] was > 66.6 µM (inactive), the IC50 [4] was 7.22 µM (active) and the IC50 [17] was 14.7 µM (active).
